Experimental data reported in patent EP1043319A1, “NOVEL ALKYLAMINO DERIVATIVES” (MITSUBISHI CHEMICAL CORPORATION, priority 1997, dated 1999).
pKi: −log10 of the molar value. Where a name gives a salt, the structure may show the parent alone.

target: T1, Sigma 2 (Rattus norvegicus, UniProt Q5U3Y7); assay: not given; conditions: read-out: Sigma 2 Ki; [^3H]-DTG 1 nM, 500 nM pentazocine, crude P2 membrane fraction from rat livers, 50 mM Tris-HCl pH 7.4, 25°C, 2 hours
T1 sequence (Q5U3Y7 1-176): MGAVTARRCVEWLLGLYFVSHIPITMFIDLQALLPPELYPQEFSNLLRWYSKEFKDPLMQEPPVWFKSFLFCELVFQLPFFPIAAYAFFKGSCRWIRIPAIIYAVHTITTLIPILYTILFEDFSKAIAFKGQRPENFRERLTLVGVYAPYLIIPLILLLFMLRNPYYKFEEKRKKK

Q: N=c1sc2cc(Cl)ccc2n1CC1CCN(C[C@H](O)c2ccc(F)cc2)CC1 (racemic) [Example 3, (R,S)-1-(4-Fluorophenyl)-2-[4-(6-chloro-2-iminobenzothiazolin-3-ylmethyl)-piperidin-1-yl]ethanol dihydrochloride] was tested. Which pKi did it give?
A: 7.46

target: T1, Sigma 2; assay: biochemical; conditions: not given

Q: How did the pKi turn out when N=c1sc2cc(Cl)ccc2n1CC1CCN(CC(O)C23CC4CC(CC(C4)C2)C3)CC1 (racemic) [Example 1, (R,S)-1-(1-Adamantyl)-2-[4-(6-chloro-2-iminobenzothiazolin-3-ylmethyl)piperidin-1-yl] ethanol dihydrochloride] was run?
A: 8.06

Q: How did the pKi turn out when CN=c1sc2cc(Cl)ccc2n1CC1CCN(CC(O)c2ccc(F)cc2)CC1 (racemic) [Example 5, (R,S)-1-(4-Fluorophenyl)-2-[4-(6-chloro-2-methyliminobenzothiazolin-3-yl-methyl)piperidin-1-yl]ethanol dihydrochloride] was run?
A: 8.14

Q: How did the pKi turn out when N=c1sc2cc(Cl)ccc2n1CC1CCN(CC(O)c2ccc(F)c(F)c2)CC1 (racemic) [Example 6, (R,S)-1-(3,4-Difluorophenyl)-2-[4-(6-chloro-2-iminobenzothiazolin-3-yl-methyl)piperidin-1-yl]ethanol dihydrochloride] was run?
A: 7.60

Q: How did the pKi turn out when N=c1sc2cc(Cl)ccc2n1CC1CCN(CC(O)c2cccc(F)c2)CC1 (racemic) [Example 11, (R,S)-1-(3-Fluorophenyl)-2-[4-(6-chloro-2-iminobenzothiazolin-3-yl-methyl)piperidin-1-yl]ethanol dihydrochloride] was run?
A: 7.44

Q: CN=c1sc2cc(Cl)ccc2n1CC1CCN(CC(O)c2ccc(F)cc2F)CC1 (racemic) [Example 22, (R,S)-1-(2,4-Difluorophenyl)-2-[4-(6-chloro-2-methyliminobenzothiazolin-3-ylmethyl)piperidin-1-yl]ethanol dihydrochloride] was tested. Which pKi did it give?
A: 8.03

Q: CN=c1sc2cc(Cl)ccc2n1CCCCN(C)CC(O)c1ccc(F)cc1 (racemic) [Example 30, (R,S)-1-(4-Fluorophenyl)-2-[[N-[4-(6-chloro-2-methyliminobenzothiazolin-3-yl)butyl]-N-methyl]amino]ethanol dihydrochloride] was tested. Which pKi did it give?
A: 7.60

Q: How did the pKi turn out when O=c1sc2cc(Br)ccc2n1CC1CCN(CC(O)c2ccc(F)cc2)CC1 (racemic) [Example 32, (R,S)-1-(4-Fluorophenyl)-2-[4-(6-bromo-2-oxobenzothiazolin-3-ylmethyl)-piperidin-1-yl]ethanol hydrochloride] was run?
A: 8.40

Q: How did the pKi turn out when O=c1sc2ccc(Cl)cc2n1CC1CCN(CC(O)c2ccc(F)cc2)CC1 (racemic) [Example 40, (R,S)-1-(4-Fluorophenyl)-2-[4-(5-chloro-2-oxobenzothiazolin-3-ylmethyl)piperidin-1-yl]ethanol hydrochloride] was run?
A: 8.33

Q: With N=c1sc2cc(Cl)ccc2n1CC1CCN(CC(=O)c2ccc(F)cc2)CC1 [Example 2, 3-[[1-[2-(4-Fluorophenyl)-2-oxoethyl]-4-piperidinyl]methyl]-6-chloro-2-iminobenzothiazoline dihydrochloride] as the compound, how does the pKi read?
A: 8.15

Q: CN=c1sc2cc(Cl)ccc2n1CC1CCN(CC(=O)c2ccc(F)cc2)CC1 [Example 4, 3-[[1-[2-(-Fluorophenyl)-2-oxoethyl]-4-piperidinyl]methyl]-6-chloro-2-methyliminobenzothiazoline dihydrochloride] was tested. Which pKi did it give?
A: 8.40

Q: CC(=O)N=c1sc2cc(Cl)ccc2n1CC1CCN(CC(=O)c2ccc(F)cc2)CC1 [Example 9, 3-[[1-[2-(4-Fluorophenyl)-2-oxoethyl]-4-piperidinyl]methyl]-6-chloro-2-acetyliminobenzothiazoline hydrochloride] was tested. Which pKi did it give?
A: 8.03

Q: N=c1sc2ccccc2n1CC1CCN(CC(=O)c2ccc(F)cc2)CC1 [Example 15, 3-[[1-[2-(4-Fluorophenyl)-2-oxoethyl]-4-piperidinyl]methyl]-2-iminobenzothiazoline dihydrochloride] was tested. Which pKi did it give?
A: 7.55

Q: With Cc1ccc2c(c1)sc(=N)n2CC1CCN(CC(=O)c2ccc(F)cc2)CC1 [Example 18, 3-[[1-[2-(4-Fluorophenyl)-2-oxoethyl]-4-piperidinyl]methyl]-6-methyl-2-iminobenzothiazoline dihydrochloride] as the compound, how does the pKi read?
A: 7.64

Q: How did the pKi turn out when N=c1sc2cc(F)ccc2n1CC1CCN(CC(=O)c2ccc(F)cc2)CC1 [Example 19, 3-[[1-[2-(4-Fluorophenyl)-2-oxoethyl]-4-piperidinyl]methyl]-6-fluoro-2-iminobenzothiazoline dihydrochloride] was run?
A: 7.68

Q: CN=c1sc2cc(Cl)ccc2n1CC1CCN(CC(=O)c2ccc(S(N)(=O)=O)cc2)CC1 [Example 21, 3-[[1-[2-(4-Aminosulfonylphenyl)-2-oxoethyl]-4-piperidinyl]methyl]-6-chloro-2-methyliminobenzothiazoline dihydrochloride] was tested. Which pKi did it give?
A: 7.77

Q: N=c1sc2cc(C(F)(F)F)ccc2n1CC1CCN(CC(=O)c2ccc(F)cc2)CC1 [Example 23, 3-[[1-[2-(4-Fluorophenyl)-2-oxoethyl]-4-piperidinyl]methyl]-2-imino-6-trifluoromethylbenzothiazoline dihydrochloride] was tested. Which pKi did it give?
A: 8.14

Q: CN=c1sc2cc(Cl)ccc2n1CC1CCN(C[C@H](O)c2ccc(F)cc2)CC1 [Example 27, (R)-1-(4-Fluorophenyl)-2-[4-(6-chloro-2-methyliminobenzothiazolin-3-yl-methyl)piperidin-1-yl]ethanol dihydrochloride] was tested. Which pKi did it give?
A: 7.77

Q: CN=c1sc2cc(Cl)ccc2n1CC1CCN(C[C@@H](O)c2ccc(F)cc2)CC1 [Example 28, (S)-1-(4-Fluorophenyl)-2-[4-(6-chloro-2-methyliminobenzothiazolin-3-yl-methyl)piperidine-1-yl]ethanol dihydrochloride] was tested. Which pKi did it give?
A: 7.72

Q: With O=C(CN1CCC(Cn2c(=O)sc3cc(Br)ccc32)CC1)c1ccc(F)cc1 [Example 31, 3-[[1-[2-(4-Fluorophenyl)-2-oxoethyl]-4-piperidinyl]methyl]-6-bromo-2-oxobenzothiazoline hydrochloride] as the compound, how does the pKi read?
A: 8.20

Q: How did the pKi turn out when O=C(CN1CCC(Cn2c(=O)sc3cc(Cl)ccc32)CC1)c1ccc(F)cc1 [Example 33, 3-[[1-[2-(4-Fluorophenyl)-2-oxoethyl]-4-piperidinyl]methyl]-6-chloro-2-oxobenzothiazoline hydrochloride] was run?
A: 8.35

Q: With O=C(CN1CCC(Cn2c(=O)sc3cc([N+](=O)[O-])ccc32)CC1)c1ccc(F)cc1 [Example 35, 3-[[1-[2-(4-Fluorophenyl)-2-oxoethyl]-4-piperidinyl]methyl]-6-nitro-2-oxobenzothiazoline hydrochloride] as the compound, how does the pKi read?
A: 7.89

Q: O=c1sc2cc([N+](=O)[O-])ccc2n1CC1CCN(CC(O)c2ccc(F)cc2)CC1 (stereo not drawn) [Example 36, 1-(4-Fluorophenyl)-2-[4-(6-nitro-2-oxobenzothiazolin-3-ylmethyl)piperidin-1-yl]ethanol hydrochloride] was tested. Which pKi did it give?
A: 7.51

Q: How did the pKi turn out when O=C(CN1CCC(Cn2c(=O)sc3ccc(Cl)cc32)CC1)c1ccc(F)cc1 [Example 39, 3-[[1-[2-(4-Fluorophenyl)-2-oxoethyl]-4-piperidinyl]methyl]-5-chloro-2-oxobenzothiazoline hydrochloride] was run?
A: 8.51
